Laboratory results as given in US9289409B2, “Sulindac formulations in a biodegradable material” (Warsaw Orthopedic, Inc., priority 2008, dated 2016).

Key:
[1] = tested on: Rat Chronic Constriction Injury Model; test: von Frey test, mechanical allodynia, rat chronic constriction injury (Bennett) model; type: in vivo, Wistar rat; settings: sulindac intraperitoneally 0.4 mg/kg/day; days 8-57; FIG. 4
From the text: (§1) The inventors evaluated the efficacy of a 5 Month Sulindac/Polymer Drug Depot in the Rat Chronic Constriction Injury Model. The animal model was the Bennett Model (Wistar rat). The purpose: To determine whether a 5 month polymer sulindac-eluting depot can improve pain associated behavioral responses in a rat model of neuropathic pain.
(§2) Experimental Design: Four loose chromic gut ligatures, 1 mm apart, were tied around the common sciatic nerve at mid-thigh. Each animal received treatment of test or control article-according to the dosing described in Table 4.
(§3) To date, the inventors have conducted the present study for a period of 57 days and have employed the following two tests: (1) the Hargreaves test on days 7, 14, 21, 28, 35, 42, 49, and 56; and (2) the von Frey test on days 8, 15, 22, 29, 36, 43, 50, and 57. The results of theses tests are summarized in FIGS. 3-6 and show the efficacy of sulindac of the recited time periods.

[2] = tested on: Rat Chronic Constriction Injury Model; test: Hargreaves test, thermal hyperalgesia, rat chronic constriction injury (Bennett) model; type: in vivo, Wistar rat; settings: sulindac intraperitoneally 0.4 mg/kg/day; days 7-56; FIG. 3
From the text: as §1, §2, §3

CC1=C(CC(=O)O)c2cc(F)ccc2/C1=C\c1ccc([S+](C)[O-])cc1 (centres unmarked) [sulindac]
pain behavioral response (percentage of baseline), mechanical allodynia, compared to unloaded polymer depots [1]: reduced the behavioral response
pain behavioral response (percentage of baseline), thermal hyperalgesia, compared to unloaded polymer depot [2]: consistently reduced the behavioral response
